Data from paper PMC11121381, “ABCG2 Mediates Resistance to the Dual EGFR and PI3K Inhibitor MTX-211 in Cancer Cells” (International Journal of Molecular Sciences, 2024).

Assays:
ABCG2 = molecular target: T1, ABCG2 (Homo sapiens, UniProt Q9UNQ0); test: vanadate-sensitive ATPase stimulation (endpoint Pi release) in ABCG2 membrane vesicles; supported by LC-MS/MS cell accumulation with and without Ko143; assay type: biochemical; details: read-out: % of basal ATPase activity (peak stimulation)
T1 construct: human ABCG2 in membrane vesicles of High-Five insect cells
T1 sequence (Q9UNQ0 1-655): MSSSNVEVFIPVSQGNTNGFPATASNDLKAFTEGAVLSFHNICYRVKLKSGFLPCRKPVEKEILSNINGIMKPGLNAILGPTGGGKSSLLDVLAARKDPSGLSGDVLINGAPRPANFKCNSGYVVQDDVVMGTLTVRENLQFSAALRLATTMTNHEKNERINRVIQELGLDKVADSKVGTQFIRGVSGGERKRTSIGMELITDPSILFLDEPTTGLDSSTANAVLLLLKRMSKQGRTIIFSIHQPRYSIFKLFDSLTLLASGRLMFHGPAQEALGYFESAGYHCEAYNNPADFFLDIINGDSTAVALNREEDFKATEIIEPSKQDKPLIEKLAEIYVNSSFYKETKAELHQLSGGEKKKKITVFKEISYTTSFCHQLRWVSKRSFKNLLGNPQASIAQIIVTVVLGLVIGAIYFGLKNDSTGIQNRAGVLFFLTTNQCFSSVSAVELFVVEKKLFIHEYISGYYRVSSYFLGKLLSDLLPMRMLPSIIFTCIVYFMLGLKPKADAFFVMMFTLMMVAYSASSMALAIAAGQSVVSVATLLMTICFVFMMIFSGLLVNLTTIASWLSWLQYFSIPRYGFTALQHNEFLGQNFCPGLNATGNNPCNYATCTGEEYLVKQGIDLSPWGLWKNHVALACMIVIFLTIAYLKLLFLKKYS

[1] = molecular target: T2, epidermal growth factor receptor (EGFR) (Homo sapiens, UniProt P00533); test: inhibition of EGF-induced EGFR phosphorylation (Tyr1068) in cells, immunoblot; assay type: cell-based
T2 construct: endogenous EGFR in S1 human colon cancer cells
T2 sequence (P00533 25-1210): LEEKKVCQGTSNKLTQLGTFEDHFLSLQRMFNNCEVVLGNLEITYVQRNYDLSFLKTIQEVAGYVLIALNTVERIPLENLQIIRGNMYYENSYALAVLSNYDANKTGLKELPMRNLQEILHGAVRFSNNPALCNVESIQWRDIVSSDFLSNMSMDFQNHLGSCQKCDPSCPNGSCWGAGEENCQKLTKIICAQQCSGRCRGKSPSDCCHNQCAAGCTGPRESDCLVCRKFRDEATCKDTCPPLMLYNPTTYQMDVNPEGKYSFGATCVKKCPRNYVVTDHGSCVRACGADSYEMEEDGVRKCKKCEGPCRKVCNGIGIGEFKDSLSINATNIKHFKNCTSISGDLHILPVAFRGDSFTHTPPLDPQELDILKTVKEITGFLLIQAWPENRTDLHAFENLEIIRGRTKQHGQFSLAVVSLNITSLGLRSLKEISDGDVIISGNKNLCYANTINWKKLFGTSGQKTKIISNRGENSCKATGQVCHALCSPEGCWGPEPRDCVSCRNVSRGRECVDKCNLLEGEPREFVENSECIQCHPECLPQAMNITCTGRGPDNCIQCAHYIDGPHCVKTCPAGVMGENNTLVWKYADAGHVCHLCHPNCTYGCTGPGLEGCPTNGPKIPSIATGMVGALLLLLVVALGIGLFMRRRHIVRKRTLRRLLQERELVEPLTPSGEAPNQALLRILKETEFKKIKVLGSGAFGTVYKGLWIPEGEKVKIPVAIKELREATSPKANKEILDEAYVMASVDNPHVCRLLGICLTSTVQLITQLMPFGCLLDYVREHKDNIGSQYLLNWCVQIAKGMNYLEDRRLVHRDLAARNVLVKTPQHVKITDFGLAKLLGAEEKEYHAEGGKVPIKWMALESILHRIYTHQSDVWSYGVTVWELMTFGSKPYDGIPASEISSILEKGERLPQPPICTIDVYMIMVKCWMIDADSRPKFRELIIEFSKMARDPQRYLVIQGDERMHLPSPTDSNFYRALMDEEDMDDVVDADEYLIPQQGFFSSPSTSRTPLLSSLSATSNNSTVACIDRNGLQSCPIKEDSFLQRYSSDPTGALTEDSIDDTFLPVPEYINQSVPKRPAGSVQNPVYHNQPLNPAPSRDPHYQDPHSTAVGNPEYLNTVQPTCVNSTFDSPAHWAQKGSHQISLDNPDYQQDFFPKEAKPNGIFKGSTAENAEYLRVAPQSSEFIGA

- Emax (ABCG2): 157%
- IC50 [1]: 6.64 ± 1.27 µM
SMILES: CS(=O)(=O)Nc1cc(-c2ccc3ncnc(Nc4ccc(F)c(Cl)c4)c3c2)cnc1Cl [MTX-211]
